In patent US6420538B1, “Aromatic amides, preparation method and application as medicines” (Aventis Pharma S.A., priority 1998, dated 2002):

What was measured:
Assay in all cases: Method of dilutions in liquid medium (MIC)
Format in all cases: cell-based
Settings in all cases: 24 hours at 37° C.
Strepto. pyogene 02A1UC1 = test system: Strepto. pyogene 02A1UC1
Procedure: (§1) A—Method of dilutions in liquid medium A series of tubes is prepared in which the same quantity of sterile nutritive medium is distributed. Increasing quantities of the product to be studied are distributed into each tube, then each tube is sown with a bacterial strain. After incubation for twenty-four hours in an oven at 37° C., the growth inhibition is evaluated by transillumination, which allows the minimal inhibitory concentrations (M.I.C.) to be determined, expressed in micrograms/cm^3. Activity in vitro MIC in μg/ml

[1] = test system: Staph. epidermidis 0126042
Procedure: as §1

Entero faecium 02D3IP2 = test system: Entero faecium 02D3IP2
Procedure: as §1

[2] = test system: Staph. coag. negative 012HT5
Procedure: as §1

[3] = test system: Strepto. pneumoniae 030BI2
Procedure: as §1

Staph. aureus 011HT18 = test system: Staph. aureus 011HT18
Procedure: as §1

Entero faecalis 02D2UC5 = test system: Entero faecalis 02D2UC5
Procedure: as §1

Activity in vitro MIC (Strepto. pyogene 02A1UC1) | Activity in vitro MIC [1] | Activity in vitro MIC (Entero faecium 02D3IP2) | Activity in vitro MIC [2] | Activity in vitro MIC [3] | Activity in vitro MIC (Staph. aureus 011HT18) | Activity in vitro MIC (Entero faecalis 02D2UC5) | SMILES
0.6 µg/mL | 0.04 µg/mL | 0.08 µg/mL | 0.3 µg/mL | 0.04 µg/mL | 0.04 µg/mL | 0.3 µg/mL | C#CCONC(=O)O[C@H]1[C@@H](O)[C@H](Oc2ccc3c(O)c(C(N)=O)c(=O)oc3c2C)OC(C)(C)[C@@H]1OC [Ex. 1, (2-propynyloxy)-carbamic 3′ester of 7-[[6-deoxy-5-C-methyl-4-O-methyl-alpha-L-lyxo-hexopyranosyl]oxy]-4-hydroxy-8-methyl-2-oxo-2H-1-benzopyran-3-carboxamide acid]
0.3 µg/mL | 0.04 µg/mL | 0.6 µg/mL | 0.04 µg/mL | 0.08 µg/mL | 0.04 µg/mL | 1.2 µg/mL | C#CCONC(=O)O[C@H]1[C@@H](O)[C@H](Oc2ccc3c(O)c(C(=O)NCCN4CCOCC4)c(=O)oc3c2C)OC(C)(C)[C@@H]1OC [Ex. 2, 7-[(6-deoxy-5-C-methyl-4-O-methyl-alpha-L-lyxo-hexopyranosyl)oxyl]-4-hydroxy-8-methyl-N-[2-(4-morpholinyl)ethyl]-2-oxo-2H-1-benzopyrane-3-carboxamide (2-propynyloxy)-carbamic 3′-ester acid]
0.6 µg/mL | 0.04 µg/mL | 1.2 µg/mL | 0.15 µg/mL | 0.08 µg/mL | 0.04 µg/mL | 1.2 µg/mL | C#CCONC(=O)O[C@H]1[C@@H](O)[C@H](Oc2ccc3c(O)c(C(C)=NOC)c(=O)oc3c2C)OC(C)(C)[C@@H]1OC [Ex. 3, 7-[[6-deoxy-5-C-methyl-4-O-methyl-alpha-L-lyxo-hexopyranosyl]oxy]-4-hydroxy-3-[1-(methoxyimino)ethyl]-8-methyl-2H-1-benzopyran-2-one(2-propynyloxy)-carbamic-3′-ester acid]
0.6 µg/mL | 0.15 µg/mL | 1.2 µg/mL | 0.15 µg/mL | 0.15 µg/mL | 0.04 µg/mL | 1.2 µg/mL | C#CCONC(=O)O[C@H]1[C@@H](O)[C@H](Oc2ccc3c(O)c(C(C)=NOCC)c(=O)oc3c2C)OC(C)(C)[C@@H]1OC [Ex. 4, 7-[(6-deoxy-5-C-methyl-4-O-methyl-alpha-L-lyxo-hexopyranosyl)oxy]-3-[1-(ethoxyimino)ethyl]-4-hydroxy-8-methyl-2H-1-benzopyran-2-one(2-propynyloxy)-carbamic 3′-ester acid]
